Drawing on BindingDB's records for patent US20250059213 (Pretzel Therapeutics, 2025), this text covers IC50 for one compound.

The assay has as its target T1, Lon protease homolog, mitochondrial (Homo sapiens, UniProt P36776).
T1 sequence (P36776 whole entry): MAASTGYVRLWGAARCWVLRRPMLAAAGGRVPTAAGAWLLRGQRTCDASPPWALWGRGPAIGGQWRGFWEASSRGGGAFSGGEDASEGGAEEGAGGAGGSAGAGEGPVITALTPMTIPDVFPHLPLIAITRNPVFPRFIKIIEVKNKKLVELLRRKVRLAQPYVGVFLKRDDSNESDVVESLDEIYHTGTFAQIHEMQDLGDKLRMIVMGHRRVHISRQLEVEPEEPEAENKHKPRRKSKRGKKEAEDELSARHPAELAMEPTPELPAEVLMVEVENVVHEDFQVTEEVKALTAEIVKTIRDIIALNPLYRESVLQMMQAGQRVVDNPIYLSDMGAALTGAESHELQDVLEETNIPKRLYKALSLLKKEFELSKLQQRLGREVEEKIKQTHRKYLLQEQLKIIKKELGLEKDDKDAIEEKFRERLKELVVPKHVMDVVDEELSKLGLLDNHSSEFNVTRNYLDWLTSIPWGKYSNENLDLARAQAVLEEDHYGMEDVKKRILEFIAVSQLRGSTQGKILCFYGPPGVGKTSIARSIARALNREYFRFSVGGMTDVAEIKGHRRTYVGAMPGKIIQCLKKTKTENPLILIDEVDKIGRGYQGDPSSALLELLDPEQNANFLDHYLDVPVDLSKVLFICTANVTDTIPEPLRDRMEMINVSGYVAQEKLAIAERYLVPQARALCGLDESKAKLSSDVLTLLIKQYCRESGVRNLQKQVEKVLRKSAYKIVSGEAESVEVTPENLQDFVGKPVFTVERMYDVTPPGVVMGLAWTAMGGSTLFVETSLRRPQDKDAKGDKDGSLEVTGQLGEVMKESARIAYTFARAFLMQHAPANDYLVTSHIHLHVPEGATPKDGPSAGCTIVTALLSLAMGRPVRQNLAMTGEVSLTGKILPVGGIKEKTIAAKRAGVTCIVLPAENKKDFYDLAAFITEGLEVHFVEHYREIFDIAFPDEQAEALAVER
As to the kind of experiment: FRET-Based Assay. On the procedure:
The LONP1-containing mix (10 μL) was incubated with the test compound for 15 min at 37° C. before adding the peptide-containing mix (5 μL). Solutions were dispensed using a small cassette-Multidrop Combi (Thermo Scientific).

Broadly, the IC50 is the concentration needed to halve the response being measured. The low end stands for inhibition by little substance, the high end for a need for much substance.

Turning to `COCC[C@@H](NC(=O)c1cnccn1)C(=O)N[C@@H](CCCc1ccccc1)B(O)O` [US20250059213, Compound 13], the half-inhibitory concentration (IC50) was under 50 nM.
